The nature of data set [1]: Crystal form stability: suspension in water stirred 24 hours or storage, solids analyzed by X-ray diffraction. Format: physicochemical. The conditions noted are these: for Crystalline form after stirring in water: suspension in water, 24 hours, X-ray diffraction. As for the experimental part: Samples of a mixture of crystalline Form I and Form II of Compound (I) were added to water at room temperature or 60° C. to form suspensions, which were stirred for 24 hours, and solids were analyzed by X-ray diffraction.

Data set [2] in a line: Hygroscopicity: weight gain at controlled relative humidity. Format: physicochemical. The conditions noted are these: 25° C.±1° C., 24 hours.
Data set [3] is described as follows: Stability of thin layers under high temperature, high humidity, light and ambient conditions, impurity by HPLC. The data set is classed as physicochemical. The conditions noted are these: day 10, HPLC.
Experiment in data set [4]: as above
Format: physicochemical. The method, then:
Thin layers (≤5 mm) of crystalline Form I were placed under high temperature (60±2° C.), high humidity (92.5%±2% humidity), light (visible light 4500 lx±500 lx) and ambient temperature (25±2° C., 65%±5% humidity) for 15 days, and samples were analyzed by HPLC on day 5, 9 and 15.

Data set [5] in a line: In vivo pharmacokinetics: memantine in plasma after intramuscular administration to rats. Conditions: memantine measured in rat plasma, memantine solution 17.5 mg/kg. As for the experimental part: Compound (I) was tested in an experiment to determine its in vivo conversion to the active compound memantine.
Analytical LC/MS/MS systems: Agilent 1200 Series vacuum degasser, dual-injection pump, orifice autosampler, column incubator, charged spray ionization (ESI) source, and Agilent G6430 three-stage quadrupole mass spectrometer. The quantitative analysis is performed in the MRM mode, with the following MRM conversion parameters:
Waters XBridge TMC18, 2.1×30 mm, 3.5 μM column; 20 μL of sample was injected in each run. Conditions: The mobile phase included […]+2 mM ammonium formate+0.1% formic acid (A) and methanol+2 mM ammonium formate+0.1% formic acid (B). The flow rate was 0.35 mL/min. The mobile phase gradient is as follows: […]
Additional instruments and reagents included Agilent 6330 Series LC/MS/MS spectrometer equipped with a G1312A Binary Injection Pump, G1367A autosampler and MS/MS Detector for analysis; LC/MS/MS spectrometer with ESI source. Suitable cationic model treatments and MRM conversion were used for each analyte using standard solution for optimal analysis. Waters XBridge TMC18 was used with specifications of 2.1×30 mm, 3.5 μM. The reaction was carried out with […] ammonium formate+0.1% formic acid (A) and methanol+2 mM ammonium formate+0.1% formic acid (B). […]

Turning to `CC12CC3CC(C)(C1)CC(NC(=O)OCOC(=O)c1ccccc1)(C3)C2` (mixture of isomers) [((((1r,3R,5S,7r)-3,5-dimethyladamantan-1-yl)carbamoyl)oxy)methyl benzoate], the “Crystalline form after stirring in water” value in data set [1] (60° C.) was “completely converted to crystalline Form I”; in data set [1] (room temperature), “remained as a mixture of crystalline Form I and Form II”.

For the compound `CC12CC3CC(C)(C1)CC(NC(=O)OCOC(=O)c1ccccc1)(C3)C2` [Crystalline Form II, ((((1r,3R,5S,7r)-3,5-dimethyladamantan-1-yl)carbamoyl)oxy)methyl benzoate], the “Crystalline form upon long term storage” value in data set [1] (long term storage at room temperature) is reported as “converted to Form I”.

Regarding `CC12CC3CC(C)(C1)CC(NC(=O)OCOC(=O)c1ccccc1)(C3)C2` [crystalline Form I, ((((1r,3R,5S,7r)-3,5-dimethyladamantan-1-yl)carbamoyl)oxy)methyl benzoate], the hygroscopicity result in data set [2] (80% and 92.5% RH) is on record as “lack of hygroscopicity”. Moreover, the weight gain is on record as 0.06% in data set [2] (saturated KNO3 aqueous solution (92.5%±2% RH)) and 0.03% in data set [2] (saturated NH4Cl aqueous solution (80%±2% RH)). Further, the percentage of impurity is recorded as 0.02% in data set [3] (60 ± 2° C.); 0.06% in data set [3] (92.5% ± 2% humidity); 0.03% in data set [3] (visible light 4500 lx±500 lx); 0.04% in data set [4] (60 ± 2° C., day 0, HPLC); 0.04% in data set [4] (60 ± 2° C., day 5, HPLC); 0.02% in data set [4] (60 ± 2° C., day 15, HPLC). The percentage of impurity in data set [4] (92.5% ± 2% humidity, day 0, HPLC) is 0.04%; in data set [4] (92.5% ± 2% humidity, day 5, HPLC) it was 0.06%; in data set [4] (92.5% ± 2% humidity, day 15, HPLC), 0.02%; in data set [4] (ambient temperature (25±2° C., 65%±5% humidity), day 0, HPLC), 0.04%; in data set [4] (ambient temperature (25±2° C., 65%±5% humidity), day 5, HPLC) it was 0.04%; in data set [4] (ambient temperature (25±2° C., 65%±5% humidity), day 10, HPLC), 0.04%. Besides, the percentage of impurity in data set [4] (ambient temperature (25±2° C., 65%±5% humidity), day 15, HPLC) is 0.01%; in data set [4] (visible light 4500 lx±500 lx, day 0, HPLC), 0.04%; in data set [4] (visible light 4500 lx±500 lx, day 5, HPLC) it was 0.03%; in data set [4] (visible light 4500 lx±500 lx, day 15, HPLC), 0.02%. Moreover, the “chemical change under stress conditions” value in data set [4] (high temperature, high humidity, light and ambient temperature for 15 days) is “did not exhibit significant chemical change”.

Compound `CC12CC3CC(C)(C1)CC(N)(C3)C2` [memantine] came in with a T1/2 in data set [5] of 4 h.

(Values after patent US10654797B2, “Solid forms of an adamantyl compound, compositions and uses thereof” (NORTH & SOUTH BROTHER PHARMACY INVESTMENT COMPANY LIMITED, priority 2016, dated 2020).)
